The values that follow are results of earlier work, collected in patent US4139504A, “Novel nonapeptides, intermediates therefor, and compositions and methods employing said nonapeptides” (priority 1977, dated 1979).

The test system of data set [1] is brain opiate receptor sites.
For a further data set, the system named is rat. As to conditions: injected directly into the brain of the rat.

Take “H--Tyr--Gly--Gly--Phe--Met--OH [methionine enkephalin]”: the “binding to partially purified brain opiate receptor sites” value in data set [1] is on record as “binds stereo-specifically”. In addition, in the data set with rat, the analgesic activity entry was “only weak analgesic agent of short duration”.
